Results published in patent US20230295119A1, “SUBSTITUTED PYRIDINES FOR THE TREATMENT OF INFLAMMATORY DISEASES” (GOSSAMER BIO SERVICES, INC., priority 2020, published 2023).

What was measured:
[1] = target: TYK2 JH2 domain (Homo sapiens (Human), UniProt P29597); experiment: TYK2 JH2 NanoBRET assay; type: binding; conditions: Table 20, read-out: TYK2 IC50
In short: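 Tracer displacement measured by BRET ratio (acceptor over donor) in live HEK293T cells transfected with a NanoLuc-tagged TYK2 JH2 construct; cells co-exposed to test compound and 0.5 µM final K10 tracer for 2 h before substrate/extracellular inhibitor addition.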

[2] = target: human JAK1 (Homo sapiens (Human), UniProt P23458); experiment: JAK1 TR-FRET kinase assay; type: biochemical; conditions: TR-FRET, JAK1 2.5 nM
human JAK1, sequence (P23458 whole entry): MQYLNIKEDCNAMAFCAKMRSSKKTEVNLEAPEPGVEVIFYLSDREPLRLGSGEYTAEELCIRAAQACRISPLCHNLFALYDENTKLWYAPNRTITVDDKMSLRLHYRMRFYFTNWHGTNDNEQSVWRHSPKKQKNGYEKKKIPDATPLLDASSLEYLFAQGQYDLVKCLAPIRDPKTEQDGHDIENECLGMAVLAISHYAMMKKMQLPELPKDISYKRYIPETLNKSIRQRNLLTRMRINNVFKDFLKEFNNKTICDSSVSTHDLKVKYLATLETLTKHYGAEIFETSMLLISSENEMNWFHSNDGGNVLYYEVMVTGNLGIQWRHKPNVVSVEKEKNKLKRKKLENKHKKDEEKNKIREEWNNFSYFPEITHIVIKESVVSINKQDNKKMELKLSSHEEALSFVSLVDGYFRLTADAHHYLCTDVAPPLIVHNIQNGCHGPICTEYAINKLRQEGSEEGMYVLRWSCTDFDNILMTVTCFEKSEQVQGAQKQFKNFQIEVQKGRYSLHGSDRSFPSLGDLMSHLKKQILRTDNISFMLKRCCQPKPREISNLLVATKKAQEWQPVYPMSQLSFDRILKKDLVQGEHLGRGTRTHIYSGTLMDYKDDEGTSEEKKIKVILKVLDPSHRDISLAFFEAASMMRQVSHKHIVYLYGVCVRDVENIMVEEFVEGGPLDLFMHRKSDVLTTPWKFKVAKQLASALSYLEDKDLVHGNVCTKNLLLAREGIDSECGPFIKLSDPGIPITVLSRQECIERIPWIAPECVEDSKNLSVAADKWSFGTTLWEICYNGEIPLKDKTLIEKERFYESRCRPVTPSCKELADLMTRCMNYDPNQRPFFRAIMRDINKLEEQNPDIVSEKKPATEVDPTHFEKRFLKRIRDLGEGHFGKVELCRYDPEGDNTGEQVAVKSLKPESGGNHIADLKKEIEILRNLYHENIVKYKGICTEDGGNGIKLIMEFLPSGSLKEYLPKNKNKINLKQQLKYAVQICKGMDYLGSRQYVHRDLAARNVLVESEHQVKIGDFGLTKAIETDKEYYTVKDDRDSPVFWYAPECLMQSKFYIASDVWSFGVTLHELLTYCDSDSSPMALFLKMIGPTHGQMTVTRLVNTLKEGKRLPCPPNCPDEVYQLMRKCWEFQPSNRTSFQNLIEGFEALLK

[3] = target: human JAK2 (Homo sapiens (Human), UniProt O60674); experiment: JAK2 TR-FRET kinase assay; type: biochemical; conditions: JAK2 0.025 nM
human JAK2, sequence (O60674 whole entry): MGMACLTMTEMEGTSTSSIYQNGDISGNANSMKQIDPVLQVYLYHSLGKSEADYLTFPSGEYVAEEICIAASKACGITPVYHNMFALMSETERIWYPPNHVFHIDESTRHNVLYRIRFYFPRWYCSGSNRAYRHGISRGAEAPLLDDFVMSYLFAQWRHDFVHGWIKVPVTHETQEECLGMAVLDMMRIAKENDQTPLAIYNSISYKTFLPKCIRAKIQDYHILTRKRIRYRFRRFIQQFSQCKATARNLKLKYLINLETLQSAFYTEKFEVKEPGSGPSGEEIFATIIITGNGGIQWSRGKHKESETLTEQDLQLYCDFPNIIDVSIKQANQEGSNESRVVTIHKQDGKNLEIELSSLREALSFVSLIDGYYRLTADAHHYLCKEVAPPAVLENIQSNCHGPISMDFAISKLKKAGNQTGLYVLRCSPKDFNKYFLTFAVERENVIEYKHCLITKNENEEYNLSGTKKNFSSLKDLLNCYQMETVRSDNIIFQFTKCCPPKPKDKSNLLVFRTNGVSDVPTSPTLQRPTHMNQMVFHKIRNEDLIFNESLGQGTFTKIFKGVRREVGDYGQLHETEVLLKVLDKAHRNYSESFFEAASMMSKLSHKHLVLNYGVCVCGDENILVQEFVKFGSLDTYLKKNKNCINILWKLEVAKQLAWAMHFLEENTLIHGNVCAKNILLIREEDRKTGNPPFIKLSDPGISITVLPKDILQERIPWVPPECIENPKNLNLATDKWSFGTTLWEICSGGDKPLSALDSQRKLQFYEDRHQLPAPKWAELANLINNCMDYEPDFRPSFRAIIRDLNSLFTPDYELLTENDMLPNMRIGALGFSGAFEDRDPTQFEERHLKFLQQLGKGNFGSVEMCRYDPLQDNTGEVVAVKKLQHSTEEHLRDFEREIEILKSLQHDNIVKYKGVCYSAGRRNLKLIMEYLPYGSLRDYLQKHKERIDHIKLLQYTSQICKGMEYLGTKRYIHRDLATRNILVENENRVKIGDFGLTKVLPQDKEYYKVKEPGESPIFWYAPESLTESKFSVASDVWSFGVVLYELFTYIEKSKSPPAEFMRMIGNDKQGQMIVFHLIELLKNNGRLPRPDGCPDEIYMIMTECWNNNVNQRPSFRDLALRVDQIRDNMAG

[4] = target: human JAK3 (Homo sapiens (Human), UniProt P52333); experiment: JAK3 TR-FRET kinase assay; type: biochemical; conditions: JAK3 0.0125 nM
human JAK3, sequence (P52333 whole entry): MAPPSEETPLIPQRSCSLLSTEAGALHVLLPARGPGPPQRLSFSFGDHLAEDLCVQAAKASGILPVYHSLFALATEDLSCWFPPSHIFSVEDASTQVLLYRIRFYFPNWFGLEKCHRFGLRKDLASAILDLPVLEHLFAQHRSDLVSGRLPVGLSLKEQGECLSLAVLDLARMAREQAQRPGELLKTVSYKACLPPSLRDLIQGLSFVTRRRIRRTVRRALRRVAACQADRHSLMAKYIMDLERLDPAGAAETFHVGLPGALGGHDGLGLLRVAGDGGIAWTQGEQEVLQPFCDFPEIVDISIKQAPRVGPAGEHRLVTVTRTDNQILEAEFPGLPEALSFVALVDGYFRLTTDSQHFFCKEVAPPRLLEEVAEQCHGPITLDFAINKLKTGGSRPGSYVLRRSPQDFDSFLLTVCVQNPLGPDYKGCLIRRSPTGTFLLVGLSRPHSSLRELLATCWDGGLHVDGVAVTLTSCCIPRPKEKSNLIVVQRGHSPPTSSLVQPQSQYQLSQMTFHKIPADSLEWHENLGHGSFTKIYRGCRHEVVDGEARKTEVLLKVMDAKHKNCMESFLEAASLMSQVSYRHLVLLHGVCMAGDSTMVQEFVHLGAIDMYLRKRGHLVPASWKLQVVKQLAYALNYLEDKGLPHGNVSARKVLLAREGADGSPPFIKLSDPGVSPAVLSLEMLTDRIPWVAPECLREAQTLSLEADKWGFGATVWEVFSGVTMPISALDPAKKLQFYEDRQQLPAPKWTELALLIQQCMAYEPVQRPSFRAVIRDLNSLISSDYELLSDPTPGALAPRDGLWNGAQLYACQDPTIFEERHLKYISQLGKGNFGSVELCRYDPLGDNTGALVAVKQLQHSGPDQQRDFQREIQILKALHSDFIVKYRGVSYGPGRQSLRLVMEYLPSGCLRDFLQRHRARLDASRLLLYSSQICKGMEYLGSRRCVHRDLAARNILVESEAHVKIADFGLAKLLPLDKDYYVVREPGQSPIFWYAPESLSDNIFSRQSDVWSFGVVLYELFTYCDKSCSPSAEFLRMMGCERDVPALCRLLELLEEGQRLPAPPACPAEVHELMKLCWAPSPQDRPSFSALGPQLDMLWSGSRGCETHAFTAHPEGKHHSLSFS

TYK2 JH2 domain, sequence (P29597 589-875): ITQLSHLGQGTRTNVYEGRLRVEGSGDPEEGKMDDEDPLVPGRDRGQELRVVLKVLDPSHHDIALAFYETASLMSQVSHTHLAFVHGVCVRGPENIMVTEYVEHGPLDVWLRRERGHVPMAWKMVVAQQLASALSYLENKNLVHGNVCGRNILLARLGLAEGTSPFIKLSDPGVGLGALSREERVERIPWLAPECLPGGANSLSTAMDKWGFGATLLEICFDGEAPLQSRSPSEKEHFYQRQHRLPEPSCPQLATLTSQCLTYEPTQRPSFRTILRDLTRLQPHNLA

Row | IC50 [1] [µM] | IC50 [2] [µM] | IC50 [3] [µM] | IC50 [4] [µM] | SMILES
1 | < 0.005 | ≥ 0.5 | ≥ 0.5 | ≥ 0.5 | CCC(=O)c1cnc(Nc2ccc(C(C)N(C)C)cn2)cc1Nc1cccc(-c2ncn(C)n2)c1OC (stereo not drawn) [Compound 9I]
2 | ≥ 0.5 | ≥ 0.5 | ≥ 0.5 | ≥ 0.5 | CCC(=O)c1cnc(Nc2cccc(C(=O)O)n2)cc1Nc1cccc(-c2ncn(C)n2)c1OC [Compound 8I]
3 | 0.005 to 0.05 | ≥ 0.5 | ≥ 0.5 | ≥ 0.5 | COc1c(Nc2cc(Nc3ccc(-c4ncn(C)n4)cn3)ncc2C(=O)C2CC2)cccc1-c1ncn(C)n1 [Compound 15N]
4 | < 0.005 | ≥ 0.5 | ≥ 0.5 | ≥ 0.5 | CCC(=O)c1cnc(Nc2ccc(C(C)N)cn2)cc1Nc1cccc(-c2ncn(C)n2)c1OC (stereo not drawn) [Compound 9G]
5 | < 0.005 | ≥ 0.5 | ≥ 0.5 | ≥ 0.5 | CCC(=O)c1cnc(Nc2ccc(CN3CC[C@@H](F)C3)cn2)cc1Nc1cccc(-c2ncn(C)n2)c1OC [Compound 9JJ]
6 | < 0.005 | ≥ 0.5 | 0.05 to 0.5 | 0.05 to 0.5 | CCC(=O)c1cnc(Nc2ccc(CN3CCS(=O)(=O)CC3)cn2)cc1Nc1cccc(-c2ncn(C)n2)c1OC [Compound 9VV]
7 | < 0.005 | ≥ 0.5 | ≥ 0.5 | ≥ 0.5 | CCC(=O)c1cnc(Nc2cc3c(cn2)B(O)OC3)cc1Nc1cccc(-c2ncn(C)n2)c1OC [Compound 15CC]
8 | 0.005 to 0.05 | ≥ 0.5 | ≥ 0.5 | ≥ 0.5 | CCC(=O)c1cnc(Nc2cnc(CS(C)(=O)=O)cn2)cc1Nc1cccc(-c2ncn(C)n2)c1OC [Compound 13U]
9 | < 0.005 | ≥ 0.5 | 0.05 to 0.5 | 0.05 to 0.5 | CCC(=O)c1cnc(Nc2ccc([C@@H](C)N3CC[C@@H](O)C3)cn2)cc1Nc1cccc(-c2ncn(C)n2)c1OC [Compound 9OO]
10 | 0.005 to 0.05 | ≥ 0.5 | ≥ 0.5 | ≥ 0.5 | COc1c(Nc2cc(Nc3ccc(OCCN(C)C)cn3)ncc2C(=O)C2CC2)cccc1-c1ncn(C)n1 [Compound 18T]
11 | < 0.005 | ≥ 0.5 | ≥ 0.5 | ≥ 0.5 | COc1c(Nc2cc(Nc3ccc(CS(C)(=O)=O)cn3)ncc2C(=O)C2CC2)cccc1-c1ncn(C)n1 [Compound 130]
12 | < 0.005 | ≥ 0.5 | ≥ 0.5 | ≥ 0.5 | CCC(=O)c1cnc(Nc2ccc(O[C@H]3CCN(C)C3)cn2)cc1Nc1cccc(-c2ncn(C)n2)c1OC [Compound 18W]
13 | 0.005 to 0.05 | ≥ 0.5 | ≥ 0.5 | ≥ 0.5 | CCC(=O)c1cnc(Nc2ccc(-n3ccccc3=O)cn2)cc1Nc1nccc(-c2ncn(C)n2)c1OC [Compound 15U]
14 | 0.005 to 0.05 | ≥ 0.5 | ≥ 0.5 | ≥ 0.5 | CCC(=O)c1cnc(Nc2ncc(O[C@@H]3CCN(C)C3)cc2F)cc1Nc1cccc(-c2ncn(C)n2)c1OC [Compound 18XXX]
15 | < 0.005 | ≥ 0.5 | ≥ 0.5 | ≥ 0.5 | CCC(=O)c1cnc(Nc2ccc([C@H](C)N3CC4(COC4)C3)cn2)cc1Nc1cccc(-c2ncn(C)n2)c1OC [Compound 9AAA]
16 | < 0.005 | ≥ 0.5 | ≥ 0.5 | ≥ 0.5 | CCC(=O)c1cnc(Nc2ccc(OCCN3CCCC3)nn2)cc1Nc1cccc(-c2ncn(C)n2)c1OC [Compound 18CC]
17 | < 0.005 | ≥ 0.5 | ≥ 0.5 | ≥ 0.5 | CCC(=O)c1cnc(Nc2ccc(OC3COC3)cn2)cc1Nc1cccc(-c2ncn(C)n2)c1OC [Compound 18Z]
18 | 0.005 to 0.05 | ≥ 0.5 | ≥ 0.5 | ≥ 0.5 | CCC(=O)c1cnc(Nc2ccc(CS(C)(=O)=O)nn2)cc1Nc1cccc(-c2ncn(C)n2)c1OC [Compound 13T]
19 | 0.005 to 0.05 | ≥ 0.5 | ≥ 0.5 | ≥ 0.5 | CCC(=O)c1cnc(Nc2cnc(O[C@@H]3CCN(C)C3)cn2)cc1Nc1cccc(-c2ncn(C)n2)c1OC [Compound 18UU]
20 | 0.005 to 0.05 | ≥ 0.5 | ≥ 0.5 | 0.05 to 0.5 | CCC(=O)c1cnc(Nc2cc(C)n(CCOC)n2)cc1Nc1cccc(-c2ncn(C)n2)c1OC [Compound 21Z]

Row | IC50 [1] [µM] | IC50 [2] [µM] | IC50 [3] [µM] | IC50 [4] [µM] | SMILES
21 | < 0.005 | ≥ 0.5 | ≥ 0.5 | 0.05 to 0.5 | CCC(=O)c1cnc(Nc2ccc(-c3cn(C)cn3)cn2)cc1Nc1cccc(-c2ncn(C)n2)c1OC [Compound 15B]
22 | 0.005 to 0.05 | ≥ 0.5 | ≥ 0.5 | ≥ 0.5 | CCC(=O)c1cnc(Nc2cnc(CCN3CCCC3)cn2)cc1Nc1cccc(-c2ncn(C)n2)c1OC [Compound 11J]
23 | 0.005 to 0.05 | ≥ 0.5 | ≥ 0.5 | ≥ 0.5 | CCC(=O)c1cnc(Nc2cnc(OCCN3CC[C@H](F)C3)cn2)cc1Nc1cccc(-c2ncn(C)n2)c1OC [Compound 18XX]
24 | 0.005 to 0.05 | ≥ 0.5 | ≥ 0.5 | 0.05 to 0.5 | CCC(=O)c1cnc(Nc2ccc(O[C@H]3CN(C)C[C@@H]3O)cn2)cc1Nc1cccc(-c2ncn(C)n2)c1OC [Compound 18S]
25 | 0.005 to 0.05 | ≥ 0.5 | ≥ 0.5 | ≥ 0.5 | CCC(=O)c1cnc(Nc2cccc(C(=O)N(C)C)n2)cc1Nc1cccc(-c2ncn(C)n2)c1OC [Compound 8L]
26 | < 0.005 | ≥ 0.5 | 0.05 to 0.5 | 0.05 to 0.5 | CCC(=O)c1cnc(Nc2ccc(O[C@@H]3CCOC3)c(C)n2)cc1Nc1cccc(-c2ncn(C)n2)c1OC [Compound 18AAAA]
27 | 0.005 to 0.05 | ≥ 0.5 | ≥ 0.5 | ≥ 0.5 | CCC(=O)c1cnc(Nc2ccc(CN(C)CC#N)cn2)cc1Nc1cccc(-c2ncn(C)n2)c1OC [Compound 9BB]
28 | 0.005 to 0.05 | ≥ 0.5 | ≥ 0.5 | ≥ 0.5 | COc1c(Nc2cc(Nc3ccc(OC(CO)CO)cn3)ncc2C(=O)C2CC2)cccc1-c1ncn(C)n1 [Compound 18K]
29 | 0.005 to 0.05 | ≥ 0.5 | ≥ 0.5 | ≥ 0.5 | CCC(=O)c1cnc(Nc2cnc(OCCCO)cn2)cc1Nc1cccc(-c2ncn(C)n2)c1OC [Compound 18Q]
30 | < 0.005 | ≥ 0.5 | ≥ 0.5 | ≥ 0.5 | CCC(=O)c1cnc(Nc2ccc(C(=O)NC)cn2)cc1Nc1cccc(-c2ncn(C)n2)c1OC [Compound 8C]
31 | < 0.005 | ≥ 0.5 | ≥ 0.5 | 0.05 to 0.5 | [2H]C([2H])([2H])N1CC[C@@H](Oc2ccc(Nc3cc(Nc4cccc(-c5ncn(C)n5)c4OC)c(C(=O)CC)cn3)nc2)C1 [Compound 18X]
32 | 0.005 to 0.05 | ≥ 0.5 | ≥ 0.5 | ≥ 0.5 | CCC(=O)c1cnc(Nc2ccc(CN3CCCC3)nn2)cc1Nc1cccc(-c2ncn(C)n2)c1OC [Compound 9OOO]
33 | < 0.005 | ≥ 0.5 | ≥ 0.5 | ≥ 0.5 | CCC(=O)c1cnc(Nc2cnc(CN(C)C)cn2)cc1Nc1cccc(-c2ncn(C)n2)c1OC [Compound 9SSS]
34 | < 0.005 | ≥ 0.5 | ≥ 0.5 | ≥ 0.5 | CCC(=O)c1cnc(Nc2cc(C(C)N)ncn2)cc1Nc1cccc(-c2ncn(C)n2)c1OC (stereo not drawn) [Compound 9OOOO]
35 | < 0.005 | ≥ 0.5 | ≥ 0.5 | ≥ 0.5 | CCC(=O)c1cnc(Nc2cc(-c3cnn(C)c3)ccn2)cc1Nc1cccc(-c2ncn(C)n2)c1OC [Compound 15G]
36 | < 0.005 | ≥ 0.5 | ≥ 0.5 | ≥ 0.5 | CCC(=O)c1cnc(Nc2cc(C(N)=O)ccn2)cc1Nc1cccc(-c2ncn(C)n2)c1OC [Compound 8F]
37 | 0.05 to 0.5 | ≥ 0.5 | ≥ 0.5 | ≥ 0.5 | CCC(=O)c1cnc(Nc2ccc(CN)nn2)cc1Nc1cccc(-c2ncn(C)n2)c1OC [Compound 9FFF]
38 | 0.005 to 0.05 | ≥ 0.5 | ≥ 0.5 | ≥ 0.5 | CCC(=O)c1cnc(Nc2ccn([C@H]3C[C@@H](C#N)C3)n2)cc1Nc1cccc(-c2ncn(C)n2)c1OC [Compound 21N]
39 | 0.005 to 0.05 | ≥ 0.5 | ≥ 0.5 | ≥ 0.5 | CCC(=O)c1cnc(Nc2cnc(O[C@@H]3CCN(CC(F)F)C3)cn2)cc1Nc1cccc(-c2ncn(C)n2)c1OC [Compound 18KKK]
40 | < 0.005 | ≥ 0.5 | ≥ 0.5 | ≥ 0.5 | CCC(=O)c1cnc(Nc2ccc(C(N(C)C)C(F)(F)F)cn2)cc1Nc1cccc(-c2ncn(C)n2)c1OC (stereo not drawn) [Compound 9V]

Row | SMILES | IC50 [1] [µM] | IC50 [2] [µM] | IC50 [3] [µM] | IC50 [4] [µM]
41 | CCC(=O)c1cnc(NC(=O)CC2CCN(C)CC2)cc1Nc1cccc(-c2ncn(C)n2)c1OC [Compound 23A, N-(4-((2-methoxy-3-(1-methyl-1H-1,2,4-triazol-3-yl)phenyl)amino)-5-propionylpyridin-2-yl)-2-(1-methylpiperidin-4-yl)acetamide] | 0.005 to 0.05 | ≥ 0.5 | ≥ 0.5 | ≥ 0.5
42 | CCC(=O)c1cnc(NC2=NN(C(=O)C3CC3)CC2)cc1Nc1cccc(-c2ncn(C)n2)c1OC [Compound 26A, 1-(6-((1-(cyclopropanecarbonyl)-4,5-dihydro-1H-pyrazol-3-yl)amino)-4-((2-methoxy-3-(1-methyl-1H-1,2,4-triazol-3-yl)phenyl)amino)pyridin-3-yl)propan-1-one] | 0.005 to 0.05 | ≥ 0.5 | ≥ 0.5 | ≥ 0.5
